Reference: publication PMC10906247, “From Functional Fatty Acids to Potent and Selective Natural-Product-Inspired Mimetics via Conformational Profiling” (ACS Central Science, 2024)
Values joined by “and” are separate entries in the source; they are usually repeats but may differ in a detail not shown here. Identical values can stand only once. Like-named read-outs stand apart in the source and are kept apart here.

Experiments:
[1] = Metabolic stability / intrinsic clearance in cryopreserved human hepatocytes; conditions: for hepatocyte CLint at 1 µM / half-life at 1 µM: human
Experimental: To gain insight into potential metabolic issues, a preliminary assessment of 1-E and 3-C in a metabolic stability assay utilizing human hepatocytes was conducted.
7.1. ADME-Tox: In Vitro Metabolism
Intrinsic clearance (cr yopreserved hepatocytes, human)
Note: Unit of Clint is µ L/min/mg for microsomes, S9 and UGT assa ys; µL/min/pmol for CYP assays; µ L/min/Million cells for hepatocyte assays […]
8.1. Experimental Conditions
8.1.1. ADME-Tox: In Vitro Metabolism
8.2. Analysis and expression of results
8.2.1. ADME-Tox: In Vitro Metabolism
Intrinsic Clearance (microsomes, S9, cryopreserved hepatocytes, reco mbinant CYP, recombinant UGT) Metabolic stability, expressed as percent of the parent compound remaining , was calculated by comparing the peak area of the compound at the time point relative to that at time -0. The ha lf-life (T1/2) was estimated from the slope of the initial linear range of the logarithmic curve of compound remaining (%) vs. time, assu ming the first -order kinetics. The apparent intrinsic cleara nce (CLint, in µL/min/pmol, µL/min/mg or µL/min/Mcell ) was calculated according to the following formula: […]
T1/2*(mg protein/µL or million cells/µL or pmol CYP iso zyme/µL)

[2] = molecular target: T1, TLX ligand binding domain (Homo sapiens, UniProt Q9Y466); experiment: TLX ligand sensing assay (AlphaScreen, RIP140 NR box peptide recruitment); assay type: biochemical; conditions: for TLX max. efficacy: oleic acid = 100
T1 construct: purchased NovAliX SAS, Strasbourg, France

[3] = molecular target: T2, GPR120 (Homo sapiens, UniProt Q5NUL3); experiment: PathHunter β-arrestin assay (Eurofins Discovery), GPR120; assay type: cell-based
T2 sequence (Q5NUL3 1-361): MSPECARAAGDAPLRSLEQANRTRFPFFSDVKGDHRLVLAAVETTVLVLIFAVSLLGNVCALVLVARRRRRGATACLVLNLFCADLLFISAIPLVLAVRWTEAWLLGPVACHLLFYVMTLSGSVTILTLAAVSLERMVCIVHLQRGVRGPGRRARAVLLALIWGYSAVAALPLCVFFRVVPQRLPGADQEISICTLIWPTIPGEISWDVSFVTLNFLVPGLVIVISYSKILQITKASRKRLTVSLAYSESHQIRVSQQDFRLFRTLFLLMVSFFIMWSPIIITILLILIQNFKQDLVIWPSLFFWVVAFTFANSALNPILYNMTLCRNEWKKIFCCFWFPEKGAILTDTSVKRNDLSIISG
Experimental: (§1) With these compounds in hand, attention was directed at evaluating their properties as ligands to GPR40, GPR120,[24] and TLX. Initial profiling experiments were conducted targeting the GPCR targets at a single concentration (15 μM) in a commercially available β-arrestin assay.
(§2) Functional assays at GPR40 and GPR120 were conducted by Eurofins Discovery services using their PathHunter® b-Arrestin assay that monitors the activation of a GPCR in a homogenous, non-imaging assay format using a technology developed by DiscoverX called Enzyme Fragment Complementation (EFC) with b-galactosidase (b-Gal) as the functional reporter. b-Arrestin GPCR cell lines built on the principles of EFC are engineered to co-express the ProLinkTM (PK) tagged GPCR and the Enzyme Acceptor (EA) tagged b-Arrestin. Activation of the GPCR-PK induces b-Arrestin-EA recruitment, forcing complementation of the two b-galactosidase enzyme fragments (EA and PK). The resulting functional enzyme hydrolyzes substrate to generate chemiluminescent […]
(§3) Additional information can be found at: www.eurofinsdiscovery.com/solution/b-arrestin Below are dose-response curves generated from Eurofins Discovery services for activity of ligands depicted in Figure 6B at GPR40 (FFAR1) and GPR120. […]

[4] = system: GPR40; conditions: GW9508; read-out: GPR40 EC50 historical; cited from earlier work
[5] = molecular target: GPR40 (FFAR1) (Homo sapiens, UniProt O14842); experiment: PathHunter β-arrestin assay (Eurofins Discovery), GPR40; assay type: cell-based
Experimental: as §1, §2, §3

[6] = cryopreserved human hepatocytes
[7] = cryopreserved human hepatocytes, Half-life (mean), human hepatocytes, 1.0E-06 M
[8] = cryopreserved human hepatocytes, Half-life, single replicates (1st, 2nd, 3rd), human hepatocytes, 1.0E-06 M
[9] = ALPHA normalized, supplement, read-out: TLX EC50 (dose-response curves)
[10] = coactivator recruitment, read-out: TLX EC50
[11] = dose-response, oleic acid = 100

T1 sequence (Q9Y466 155-383 limits assumed): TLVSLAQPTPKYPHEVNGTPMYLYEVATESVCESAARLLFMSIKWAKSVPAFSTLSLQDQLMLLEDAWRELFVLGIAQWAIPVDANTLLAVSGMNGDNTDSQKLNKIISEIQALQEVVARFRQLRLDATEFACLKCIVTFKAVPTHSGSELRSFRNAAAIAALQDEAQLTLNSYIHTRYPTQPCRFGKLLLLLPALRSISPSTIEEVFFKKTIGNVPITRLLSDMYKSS
Sequence of GPR40 (FFAR1) (O14842 whole entry): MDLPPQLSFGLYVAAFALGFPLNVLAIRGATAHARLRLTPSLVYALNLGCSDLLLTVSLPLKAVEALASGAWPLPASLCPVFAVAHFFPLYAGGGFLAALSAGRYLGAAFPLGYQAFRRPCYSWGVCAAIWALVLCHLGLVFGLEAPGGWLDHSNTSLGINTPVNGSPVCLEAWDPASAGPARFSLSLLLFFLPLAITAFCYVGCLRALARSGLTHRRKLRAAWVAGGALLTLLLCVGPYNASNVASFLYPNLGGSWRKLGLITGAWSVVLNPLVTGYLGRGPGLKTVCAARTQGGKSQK

SMILES: CCCCC[C@@H](C)/C=C(/C)C/C(C)=C/[C@H](C)CCCCCC(=O)O [3-C]
- Half-life, single replicates (1st, 2nd, 3rd) ([1]; human hepatocytes, 1.0E-06 M, listed as GCM/LEM 3-C): 1.862 h and 1.848 h
- hepatocyte CLint at 1 µM [1, 6]: 8.7 µL/min/1e6 cells
- half-life at 1 µM [1, 7]: 1.9 h
- half-life at 1 µM [1, 8]: 1.97 h
- % Compound Remaining, mean ([1]; incubation 30 minutes, 1.0E-06 M): 96 % remaining
- % Compound Remaining, single replicates (1st, 2nd, 3rd) ([1]; incubation 30 minutes, 1.0E-06 M, listed as GCM/LEM 3-C): 97.3 % remaining and 95.1 % remaining and 96.7 % remaining
- % Compound Remaining, mean ([1]; incubation 60 minutes, 1.0E-06 M): 75 % remaining
- % Compound Remaining, single replicates (1st, 2nd, 3rd) ([1]; incubation 60 minutes, 1.0E-06 M, listed as GCM/LEM 3-C): 72.5 % remaining and 71.7 % remaining and 79.8 % remaining
- % Compound Remaining, mean ([1]; incubation 90 minutes, 1.0E-06 M): 57 % remaining
- % Compound Remaining, single replicates (1st, 2nd, 3rd) ([1]; incubation 90 minutes, 1.0E-06 M, listed as GCM/LEM 3-C): 59.1 % remaining and 54.4 % remaining and 53.2 % remaining
- % Compound Remaining, mean ([1]; incubation 120 minutes, 1.0E-06 M): 51 % remaining
- % Compound Remaining, single replicates (1st, 2nd, 3rd) ([1]; incubation 120 minutes, 1.0E-06 M, listed as GCM/LEM 3-C): 53.3 % remaining and 52.1 % remaining and 48.9 % remaining
- EC50 [2, 9]: 818 nM
- EC50 [2, 10]: 800 nM
- TLX max. efficacy [2]: 66%

SMILES: CCCCC[C@@H](C)/C=C(/C)C/C(C)=C/[C@@H](C)CCCCCC(=O)O [3-D]
- EC50 [2, 9]: 1170 nM

SMILES: CCCCC[C@H](C)/C=C(/C)C/C(C)=C/[C@H](C)CCCCCC(=O)O [3-E]
- EC50 [2, 9]: 959 nM

SMILES: CCCCC[C@H](C)/C=C(/C)C/C(C)=C/[C@@H](C)CCCCCC(=O)O [3-F]
- EC50 [2, 9]: 892 nM
- EC50 [2, 10]: 900 nM
- TLX max. efficacy [2]: 71%

SMILES: CCCC/C=C(/C)C/C(C)=C/[C@H](C)CCCCCCCC(=O)O [4-A]
- EC50 [2, 9]: 1520 nM

SMILES: CCCC/C=C(/C)C/C(C)=C/[C@@H](C)CCCCCCCC(=O)O [4-B]
- EC50 [2, 9]: 2970 nM

SMILES: CCC[C@@H](C)/C=C(/C)C/C(C)=C/[C@H](C)CCCCCCCC(=O)O [4-C]
- activity against GPR120 ([3]; from Figure 6A, 15 μM): inactive
- EC50 [2, 9]: 1530 nM

SMILES: CCC[C@@H](C)/C=C(/C)C/C(C)=C/[C@@H](C)CCCCCCCC(=O)O [4-D]
- EC50 [2, 9]: 1570 nM

SMILES: CCC[C@H](C)/C=C(/C)C/C(C)=C/[C@H](C)CCCCCCCC(=O)O [4-E]
- EC50 [2, 9]: 1320 nM

SMILES: CCC[C@H](C)/C=C(/C)C/C(C)=C/[C@@H](C)CCCCCCCC(=O)O [4-F]
- EC50 [2, 9]: 1890 nM

SMILES: CCN(CC)CCN1C(=O)CN=C(c2ccccc2F)c2cc(Cl)ccc21 [Flurazepam, reference compound]
- Half-life, single replicates (1st, 2nd, 3rd) ([1]; human hepatocytes, 1.0E-06 M): 0.797 h and 0.895 h
- hepatocyte CLint at 1 µM ([1]; hepatocytes): 19.3 µL/min/1e6 cells
- half-life at 1 µM ([1]; hepatocytes, Half-life (mean), human hepatocytes, 1.0E-06 M): 0.85 h
- half-life at 1 µM ([1]; hepatocytes, Half-life, single replicates (1st, 2nd, 3rd), human hepatocytes, 1.0E-06 M): 0.882 h

SMILES: O=C(O)CCc1ccc(NCc2cccc(Oc3ccccc3)c2)cc1 [GW9508, reference compound]
- EC50 [4]: 47 nM
- GPR120 max. efficacy [3, 11]: 87%
- EC50 ([5]; dose-response, β-arrestin assay, read-out: GPR40 EC50 measured): 1000 nM
- GPR40 max. efficacy [5, 11]: 229%
- EC50 ([5]; three independent assays behind the average, read-out: GPR40 EC50, independent assays): 1500 nM and 980 nM and 700 nM

SMILES: O=c1cc(C(F)(F)F)c2ccc(O)cc2o1 [HFC, reference compound]
- CLint ([1]; human hepatocytes, 1.0E-06 M): 47.3 μL/min/million cells
- Half-life (mean) ([1]; human hepatocytes, 1.0E-06 M): 0.35 h
- Half-life, single replicates (1st, 2nd, 3rd) ([1]; human hepatocytes, 1.0E-06 M): 0.348 h and 0.352 h and 0.347 h

SMILES: C=CCN1CC[C@]23c4c5ccc(O)c4O[C@H]2C(=O)CC[C@@]3(O)[C@H]1C5 [Naloxone, reference compound]
- Half-life, single replicates (1st, 2nd, 3rd) ([1]; human hepatocytes, 1.0E-06 M): 1.47 h and 1.852 h
- hepatocyte CLint at 1 µM [1, 6]: 10.1 µL/min/1e6 cells
- half-life at 1 µM [1, 7]: 1.65 h
- half-life at 1 µM [1, 8]: 1.61 h

SMILES: CC(C)NCC(O)COc1cccc2ccccc12 (stereo not drawn) [Propanolol, Propranolol, reference compound]
- half-life at 1 µM [1, 7]: 3.12 h
- half-life at 1 µM [1, 8]: 3.25 h
